Source: patent US20070081951A1, “Prevention of dental plaque and dental calculus in animals” (priority 2005, published 2007)

Experiments:
[1] = test system: Streptococcus mutans (TH16); assay: Zones of inhibition of growth on TSA agar plates, Streptococcus mutans (TH16); format: cell-based; conditions: for Zones of Inhibition of Growth, TH16: 20 ul specimen on TSA agar lawn, 37° C., 5% CO2, read at 24 and 48 h, CPC 0.05%, CHX 0.1%, acids 1% (wt. %)
Description: (§1) This study was conducted to determine whether anti-calculus agents inhibit the antimicrobial activity of cetyl pyridium chloride […] and chlorhexidine (CHX).
(§2) Experimental Design: TSA agar plates were individually swabbed with fresh 24 h broth cultures of Streptococcus mutans (TH16), Streptococcus parasanguis (FW213) and Actinomyces viscosus (AV) to provide a confluent lawn of bacterial growth. Five minutes after swabbing the plates (to allow the inoculum to absorb into the agar), 20 ul of each test specimen (see below) was placed onto designated places on the plates and allowed to absorb into the agar. The plates were incubated agar-side up at 37° C. in 5% CO2 for 48 h. Plates were examined at 24 and 48 h for zones of inhibition of growth for each bacterial species. The diameter of each zone was measured in mm. The zones of inhibition of each mixture (anti-calculus and antimicrobial agents) were compared to the zones of each agent separately. If the zones of the mixtures were the same size (or larger) than the inhibition zones from the antimicrobial agent alone then there was no inhibition of antimicrobial activity by the anti-calculus agent.
(§3) Test Specimens: There were 12 different samples/test specimens used in this experiment. Test groups included (concentrations are wt. %): cetyl pyridium chloride ([…]; commercially available from ICN Biomedicals, Inc., Aurora, Ohio) at a concentration of 0.05%; CPC at 0.05%+1.0% malic acid; CPC at 0.05%+1% fumaric acid; CPC at 0.05%+1% citric acid; chlorhexidine (CHX; commercially available ICN Biomedicals, Inc., Aurora, Ohio) at 0.1% alone; CHX at 0.1%+1% malic acid; CHX at 0.1%+1% fumaric acid; CHX at 0.1%+1% citric acid; 1% malic acid; 1% fumaric acid; 1% citric acid.
(§4) Results: See Table 1 (below). This study was designed to determine whether or not the polycarboxylic acids (anti-calculus agents) altered the activity of the anti-microbial agents. Decreases in the width of the zone of inhibition when the polycarboxylic acid is combined with the antimicrobial agent, as compared to the width of the zone of inhibition for the antimicrobial agent alone, is an indication that the polycarboxylic acid reduced the activity of the anti-microbial agent. Differences in the width of the zone of inhibition of ±3 mm are not considered to be significant.

[2] = test system: Actinomyces viscosus (AV); assay: Zones of inhibition of growth on TSA agar plates, Actinomyces viscosus (AV); format: cell-based; conditions: for Zones of Inhibition of Growth, AV: 20 ul specimen on TSA agar lawn, 37° C., 5% CO2, read at 24 and 48 h, CPC 0.05%, CHX 0.1%, acids 1% (wt. %)
Description: as §1, §2, §3, §4

[3] = test system: Streptococcus parasanguis (FW213); assay: Zones of inhibition of growth on TSA agar plates, Streptococcus parasanguis (FW213); format: cell-based; conditions: for Zones of Inhibition of Growth, FW213: 20 ul specimen on TSA agar lawn, 37° C., 5% CO2, read at 24 and 48 h, CPC 0.05%, CHX 0.1%, acids 1% (wt. %)
Description: as §1, §2, §3, §4

[4] = test system: dental plaque in cats; assay: Example 3: antimicrobial rinses in cats, 4-week dental plaque formation; format: in vivo; conditions: 4-week test periods, clinical plaque grading
Description: The presence of dental plaque was assessed clinically by disclosing the plaque with an aqueous solution containing 1.5% D&C Red #28, removing the excess disclosant by spraying with tap water, and then determining the amount of plaque present on the occlusal and gingival halves of the buccal surface of each tooth using the following numerical scale: 0=no observable plaque; 1=scattered plaque covering <24% of the tooth surface; 2=plaque covering between 25 and 49% of the tooth surface; 3=plaque covering between 50 and 74% of the tooth surface; and 4=plaque covering 75% or more of the tooth surface. The plaque intensity or thickness was assessed for each area using the following subjective numerical scale: 1=light or thin layer of plaque; 2=moderate thickness of about 1 mm; and 3=heavy or thick layer of plaque in excess of 1 mm in thickness. The results of the assessments were summarized for each animal by multiplying the plaque coverage score by the intensity factor for each occlusal and gingival segment of each tooth, summing the scores for the occlusal and gingival segments to obtain an individual tooth score, and summing the individual tooth scores and dividing by the number of teeth graded.
The treatments were applied as rinses with 4-week test periods using the same procedures as described for Example 2. The amount of plaque present at the conclusion of the test period was graded clinically using the numerical scale described previously.

[5] = zone of mixture vs antimicrobial agent alone, differences of ±3 mm not significant

SMILES	Zones of Inhibition of Growth, TH16 [1]	Zones of Inhibition of Growth, AV [2] [mm]	Zones of Inhibition of Growth, FW213 [3] [mm]	Change of antimicrobial activity on combining with the polycarboxylic acids, S. mutans [1, 5]	Change of antimicrobial activity on combining with the polycarboxylic acids, A. viscosus [2, 5]	Change of antimicrobial activity on combining with the polycarboxylic acids, S. parasanguis [3, 5]	Reduction in the formation of dental plaque [4]
O=C(O)CC(O)(CC(=O)O)C(=O)O [C (citric acid), citric acid]	Weak* (Weak = very slight activity; <1 mm)	0	0				
[H]/N=C(\N/C(=N/[H])NCCCCCCNC(=N)NC(=N)Nc1ccc(Cl)cc1)Nc1ccc(Cl)cc1 [CHX alone, chlorhexidine gluconate]	6 mm	20	13	not altered	decreased by the presence of fumaric acid	not altered	
O=C(O)/C=C/C(=O)O [F (fumaric acid), fumaric acid]	Weak* (Weak = very slight activity; <1 mm)	0	0				
O=C(O)CC(O)C(=O)O (stereo not drawn) [M (malic acid), malic acid]	Weak* (Weak = very slight activity; <1 mm)	0	0				
Oc1cc(Cl)ccc1Oc1ccc(Cl)cc1Cl [Triclosan]							14.8%
CCCCCCCC(=O)O [caprylic acid]							10.2%
[F][Sn][F] [stannous fluoride]							no reduction
